From patent US6461598B1, “Process for conditioning hair” (Biosil Research Institute Inc., priority 2000, dated 2002)

Assay: Primary eye irritation, protocol FHSLA 16 CFR 1500.42
Format: in vivo
Settings: products tested at 25% actives
Description: Eye irritation is a major concern in the formulation of personal care products, particularly when working with quats. Primary eye irritation using the protocol outlined in FHSLA 16 CFR 1500.42 The products were tested at 25% actives.

SMILES | Primary eye irritation rating | Primary eye irritation score
CCCCCCCCCCCCCCCC[N+](C)(C)C.[Cl-] [Cetyltrimethyl ammonium Chloride] | Severely Irritating | 106.0
CCCCCCCCCCCCCCCCCC[N+](C)(C)Cc1ccccc1.[Cl-] [Stearalkonium Chloride] | Severely Irritating | 116.5
CCCCCCCCCCCCCCCC[N+](CC)(CC)CC.[Cl-] [Cetyltriethyl ammonium Chloride] | Severely Irritating | 115.0
